# Measured values published in US12427187B2, “Glucose-responsive insulin conjugates” (priority 2019, dated 2025).
# Where two headings read alike, the source gives them in different places.
# Assays:
# [1] = molecular target: T1, Human macrophage mannose receptor 1 (MRC1) (Homo sapiens, UniProt P22897); test: MRC1 competition binding assay with Eu-mannosylated-BSA; conditions: IP = inflection point
# T1 sequence (P22897 19-1456): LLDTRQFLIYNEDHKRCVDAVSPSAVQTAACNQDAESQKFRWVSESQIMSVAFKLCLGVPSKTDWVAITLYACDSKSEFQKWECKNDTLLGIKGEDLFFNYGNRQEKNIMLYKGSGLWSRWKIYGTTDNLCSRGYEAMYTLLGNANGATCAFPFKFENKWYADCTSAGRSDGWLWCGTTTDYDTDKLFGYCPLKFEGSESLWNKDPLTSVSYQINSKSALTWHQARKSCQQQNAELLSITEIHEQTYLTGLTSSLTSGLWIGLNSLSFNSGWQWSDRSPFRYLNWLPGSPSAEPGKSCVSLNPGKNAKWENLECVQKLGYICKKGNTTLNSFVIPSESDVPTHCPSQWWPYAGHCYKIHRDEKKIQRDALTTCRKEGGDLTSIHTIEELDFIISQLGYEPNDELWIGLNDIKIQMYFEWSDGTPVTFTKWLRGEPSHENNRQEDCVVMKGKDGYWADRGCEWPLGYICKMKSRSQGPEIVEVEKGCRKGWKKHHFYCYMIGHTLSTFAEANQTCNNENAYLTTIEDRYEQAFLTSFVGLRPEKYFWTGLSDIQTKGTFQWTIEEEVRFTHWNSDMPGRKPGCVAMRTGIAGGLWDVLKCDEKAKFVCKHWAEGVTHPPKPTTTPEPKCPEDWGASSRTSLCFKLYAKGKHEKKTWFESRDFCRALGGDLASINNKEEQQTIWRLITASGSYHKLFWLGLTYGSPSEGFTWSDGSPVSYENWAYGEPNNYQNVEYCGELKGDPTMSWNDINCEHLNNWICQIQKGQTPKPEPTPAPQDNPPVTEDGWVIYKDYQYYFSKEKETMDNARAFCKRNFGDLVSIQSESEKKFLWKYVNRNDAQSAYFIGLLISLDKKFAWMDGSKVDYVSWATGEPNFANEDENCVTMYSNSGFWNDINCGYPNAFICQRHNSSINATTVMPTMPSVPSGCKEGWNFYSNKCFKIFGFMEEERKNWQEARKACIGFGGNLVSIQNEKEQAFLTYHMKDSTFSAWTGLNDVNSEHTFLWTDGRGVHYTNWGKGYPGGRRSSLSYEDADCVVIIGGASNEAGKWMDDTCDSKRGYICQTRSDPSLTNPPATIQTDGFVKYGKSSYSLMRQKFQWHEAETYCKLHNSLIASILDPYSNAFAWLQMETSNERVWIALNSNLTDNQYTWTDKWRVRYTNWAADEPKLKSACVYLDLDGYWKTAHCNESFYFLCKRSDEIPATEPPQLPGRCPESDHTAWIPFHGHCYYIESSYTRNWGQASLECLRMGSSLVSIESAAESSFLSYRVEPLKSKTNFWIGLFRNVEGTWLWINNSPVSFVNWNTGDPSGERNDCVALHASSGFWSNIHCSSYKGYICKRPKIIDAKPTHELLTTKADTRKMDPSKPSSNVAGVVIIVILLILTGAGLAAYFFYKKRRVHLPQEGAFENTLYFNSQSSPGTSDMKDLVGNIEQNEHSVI
# Method: The competition binding assay for Human macrophage mannose receptor 1 (MRC1) utilized a ligand, mannosylated-BSA labeled with the DELFIA Eu-N1-ITC reagent, as reported in the literature. Assay was performed either in a 96-well plate with 100 μL well volume (Method E) or in a 384-well plate with 25 μL well volume (Method F). […] The antibody was incubated in the plate for 1 hr at rt with shaking. The plate was washed with wash buffer 3-5 times followed by addition of MRC1 (2 ng/μl final concentration) in PBS containing 1% stabilizer BSA. The plate was incubated at rt with gentle shaking for 1 hr. The plate was washed three times with wash buffer. The IOC molecules in 12.5 μL (or 50 μL depending on plate format) buffer at appropriate concentrations were added followed by 12.5 μL (or 50 μL) Eu-mannosylated-BSA (0.1 nm final concentration) in 50 mM Tris, pH 7.5 containing 100 mM NaCl, 5 mM CaCl2, 1 mM MgCl2 and 0.2% stabilizer BSA. The plate was incubated for 2 hrs at rt with shaking followed by washing three times with wash buffer.
# human IR(B) = human IR(B) (Homo sapiens, UniProt P06213); test: Insulin receptor phosphorylation assay (MSD pIR); assay type: cell-based; conditions: Method A: IR phosphorylation assay, 96-well; CHO cells expressing human IR(B); IP = inflection point; read-out: IR Activation IP
# human IR(B), sequence (P06213 28-758 limits assumed): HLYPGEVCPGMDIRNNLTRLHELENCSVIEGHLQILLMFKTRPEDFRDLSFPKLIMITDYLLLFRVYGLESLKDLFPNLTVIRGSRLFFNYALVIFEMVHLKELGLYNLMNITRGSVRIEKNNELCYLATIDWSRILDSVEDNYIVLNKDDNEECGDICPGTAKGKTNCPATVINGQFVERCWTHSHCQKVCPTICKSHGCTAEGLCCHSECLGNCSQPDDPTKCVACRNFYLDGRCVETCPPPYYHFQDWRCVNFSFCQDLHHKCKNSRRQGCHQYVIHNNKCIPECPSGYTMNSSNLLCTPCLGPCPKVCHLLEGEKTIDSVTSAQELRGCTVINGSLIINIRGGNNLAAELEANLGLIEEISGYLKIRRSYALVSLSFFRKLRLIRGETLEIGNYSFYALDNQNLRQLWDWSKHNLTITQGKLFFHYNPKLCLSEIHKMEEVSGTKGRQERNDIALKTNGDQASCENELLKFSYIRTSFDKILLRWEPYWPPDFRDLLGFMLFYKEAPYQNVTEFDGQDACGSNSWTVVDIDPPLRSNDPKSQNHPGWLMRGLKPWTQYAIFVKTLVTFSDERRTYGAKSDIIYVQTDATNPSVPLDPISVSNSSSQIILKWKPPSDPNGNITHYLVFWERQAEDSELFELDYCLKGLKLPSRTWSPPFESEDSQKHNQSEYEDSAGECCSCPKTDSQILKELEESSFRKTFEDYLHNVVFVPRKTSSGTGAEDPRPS
# human IR(B), sequence (P06213 763-1382 partner limits assumed): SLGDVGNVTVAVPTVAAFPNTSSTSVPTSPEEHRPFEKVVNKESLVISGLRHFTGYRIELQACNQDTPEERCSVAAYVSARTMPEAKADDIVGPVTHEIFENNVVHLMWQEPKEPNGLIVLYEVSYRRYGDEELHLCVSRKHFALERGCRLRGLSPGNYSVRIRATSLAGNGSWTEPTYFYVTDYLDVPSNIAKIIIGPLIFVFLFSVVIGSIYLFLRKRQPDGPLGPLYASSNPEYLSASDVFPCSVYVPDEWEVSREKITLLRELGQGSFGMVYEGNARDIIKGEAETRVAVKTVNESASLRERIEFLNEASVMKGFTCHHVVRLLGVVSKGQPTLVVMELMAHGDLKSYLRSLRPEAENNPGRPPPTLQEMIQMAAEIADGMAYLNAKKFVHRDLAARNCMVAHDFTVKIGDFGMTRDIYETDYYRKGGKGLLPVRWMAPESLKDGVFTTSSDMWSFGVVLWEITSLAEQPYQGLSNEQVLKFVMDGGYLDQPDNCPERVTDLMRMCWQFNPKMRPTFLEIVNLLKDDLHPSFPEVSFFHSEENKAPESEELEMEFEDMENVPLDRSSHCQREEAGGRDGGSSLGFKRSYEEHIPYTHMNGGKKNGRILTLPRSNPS
# Method: CHO cells stably expressing human IR(B) were in grown in F12 cell media containing 10% FBS and antibiotics (G418, Penicillin/Strepavidin) for at least 8 hr, and then serum starved by switching to F12 media containing 0.5% BSA (insulin-free) in place of FBS for overnight growth. Cells were harvested and frozen in aliquots for use in the MSD pIR assay. Briefly, the frozen cells were plated in either 96-well (40,000 cells/well, Methods A) or 384-well (10,000 cells/well, Method B) clear tissue culture plates and allowed to recover. IOC molecules at the appropriate concentrations were added and the cells incubated for 8 min at 37° C. The media was aspirated and chilled MSD cell lysis buffer was added as per MSD kit instructions. The cells were lysed on ice for 40 min and the lysate then mixed for 10 min at rt. The lysate was transferred to the MSD kit pIR detection plates. The remainder of the assay was carried out following the MSD kit recommended protocol.
# The in vitro biological activities towards insulin receptor (IR) were measured by either ligand competition assays or functional phosphorylation assays, as described above, labeled as following: Method A: IR phosphorylation assay based on 96-well; Method B: IR phosphorylation assay based on 384-well with automated liquid dispense; Method C: cell-based IR binding assay; Method D: SPA IR binding assay method E; Method E: MRC1 assay was performed in a 96-well plate; Method F: MRC1 assay was performed in a 384-well plate.
# [2] = Method E: 96-well plate, read-out: MRC1 Binding IP
# [3] = Method F: 384-well plate, read-out: MRC1 Binding IP
"IC50 [1, 3]",Structure (SMILES),other results
–,CC(=O)[C@H](CCCCN)NC(=O)CCCCC(=O)N[C@@H](CCC(=O)NCCO[C@@H]1O[C@@H](C)[C@@H](O)[C@@H](O)[C@@H]1O)C(=O)N[C@@H](CCC(=O)NCCO[C@@H]1O[C@@H](C)[C@@H](O)[C@@H](O)[C@@H]1O)C(=O)N[C@@H](CCC(=O)NCCO[C@@H]1O[C@@H](C)[C@@H](O)[C@@H](O)[C@@H]1O)C(=O)NCCO[C@@H]1O[C@@H](C)[C@@H](O)[C@@H](O)[C@@H]1O [IOC-19],"IC50 [1, 2]: 16 nM; EC50 (human IR(B)): 0.81 nM"
–,CC(=O)[C@H](CCCCN)NC(=O)CCCCC(=O)N[C@@H](CCC(=O)NCCCC[C@@H](C(=O)NCCO[C@@H]1O[C@H](CO)[C@@H](O)[C@H](O)[C@H]1O)N(CC(=O)NCCO[C@@H]1O[C@H](CO)[C@@H](O)[C@H](O)[C@H]1O)CC(=O)NCCO[C@@H]1O[C@H](CO)[C@@H](O)[C@H](O)[C@H]1O)C(=O)N[C@@H](CCC(=O)NCCCC[C@@H](C(=O)NCCO[C@@H]1O[C@H](CO)[C@@H](O)[C@H](O)[C@H]1O)N(CC(=O)NCCO[C@@H]1O[C@H](CO)[C@@H](O)[C@H](O)[C@H]1O)CC(=O)NCCO[C@@H]1O[C@H](CO)[C@@H](O)[C@H](O)[C@H]1O)C(=O)N[C@@H](CC(C)C)C(=O)NCCCC[C@@H](C(=O)NCCO[C@@H]1O[C@H](CO)[C@@H](O)[C@H](O)[C@H]1O)N(CC(=O)NCCO[C@@H]1O[C@H](CO)[C@@H](O)[C@H](O)[C@H]1O)CC(=O)NCCO[C@@H]1O[C@H](CO)[C@@H](O)[C@H](O)[C@H]1O [IOC-57],"IC50 [1, 2]: 1560 nM"
28.8 nM,CC(=O)[C@H](CCCCN)NC(=O)CCCCC(=O)NCC(=O)N[C@@H](CCC(=O)N[C@@H](CCC(=O)NCCCCCC(=O)N(CCOC1O[C@H](CO)[C@@H](O)[C@H](O)[C@@H]1O)CCO[C@H]1O[C@H](CO)[C@@H](O)[C@H](O)[C@@H]1O)C(=O)NCCCCCC(=O)N(CCOC1O[C@H](CO)[C@@H](O)[C@H](O)[C@@H]1O)CCOC1O[C@H](CO)[C@@H](O)[C@H](O)[C@@H]1O)C(=O)NCCCCCC(=O)N(CC(=O)NCCO[C@@H]1O[C@@H](C)[C@@H](O)[C@@H](O)[C@@H]1O)CC(=O)NCCO[C@@H]1O[C@@H](C)[C@@H](O)[C@@H](O)[C@@H]1O (stereo partly drawn) [IOC-51],–
604 nM,CC(=O)[C@H](CCCCN)NC(=O)CCCCC(=O)NCC(=O)N[C@@H](CCC(=O)N[C@@H](CCC(=O)NCCCCCC(=O)N(CCOC1O[C@H](CO)[C@@H](O)[C@H](O)[C@@H]1O)CCO[C@H]1O[C@H](CO)[C@@H](O)[C@H](O)[C@@H]1O)C(=O)NCCCCCC(=O)N(CCOC1O[C@H](CO)[C@@H](O)[C@H](O)[C@@H]1O)CCOC1O[C@H](CO)[C@@H](O)[C@H](O)[C@@H]1O)C(=O)NCCCCCC(=O)NCCO[C@H]1O[C@H](CO[C@H]2O[C@H](CO)[C@@H](O)[C@H](O)[C@@H]2O)[C@@H](O)[C@H](O[C@H]2O[C@H](CO)[C@@H](O)[C@H](O)[C@@H]2O)[C@@H]1O (stereo partly drawn) [IOC-32],–
9.78 nM,CC(=O)[C@H](CCCCN)NC(=O)CCCCC(=O)NCC(=O)N[C@@H](CCC(=O)N[C@@H](CCC(=O)NCCCCCC(=O)N(CCOC1O[C@H](CO)[C@@H](O)[C@H](O)[C@@H]1O)CCOC1O[C@H](CO)[C@@H](O)[C@H](O)[C@@H]1O)C(=O)NCCCCCC(=O)N(CCOC1O[C@H](CO)[C@@H](O)[C@H](O)[C@@H]1O)CCOC1O[C@H](CO)[C@@H](O)[C@H](O)[C@@H]1O)C(=O)NCCCCCC(=O)NCCO[C@H]1O[C@H](CO[C@H]2O[C@H](CO)[C@@H](O)[C@H](O)[C@@H]2O)[C@@H](O)[C@H](O[C@H]2O[C@H](CO)[C@@H](O)[C@H](O)[C@@H]2O)[C@@H]1O (stereo partly drawn) [IOC-38],–
–,CC(=O)[C@H](CCCCN)NC(=O)CCCCCNC(=O)[C@H](CCCCNC(=O)CCCCCNC(=O)CN(CC(=O)NCCO[C@@H]1O[C@@H](C)[C@@H](O)[C@@H](O)[C@@H]1O)CC(=O)NCCO[C@@H]1O[C@@H](C)[C@@H](O)[C@@H](O)[C@@H]1O)NC(=O)[C@H](CCCCNC(=O)CCCCCNC(=O)CN(CC(N)=O)CC(=O)NCCO[C@@H]1CC(C)[C@@H](O)[C@@H](O)[C@@H]1O)NC(=O)CCCCCNC(=O)CN(CC(=O)NCCO[C@@H]1O[C@@H](C)[C@@H](O)[C@@H](O)[C@@H]1O)CC(=O)NCCO[C@@H]1O[C@@H](C)[C@@H](O)[C@@H](O)[C@@H]1O (stereo partly drawn) [IOC-41],"IC50 ([1]; MRC1 Binding IP, Method F: 384-well plate): 6.09 nM"
–,CC(=O)[C@H](CCCCN)NC(=O)CCCCC(=O)N[C@@H](CCC(=O)NCCCC[C@@H](C(=O)NCCO[C@H]1O[C@H](CO)[C@@H](O)[C@H](O)[C@@H]1O)N(CC(=O)NCCO[C@H]1O[C@H](CO)[C@@H](O)[C@H](O)[C@@H]1O)CC(=O)NCCO[C@H]1O[C@H](CO)[C@@H](O)[C@H](O)[C@@H]1O)C(=O)N[C@@H](CCC(=O)NCCCC[C@@H](C(=O)NCCO[C@H]1O[C@H](CO)[C@@H](O)[C@H](O)[C@@H]1O)N(CC(=O)NCCO[C@H]1O[C@H](CO)[C@@H](O)[C@H](O)[C@@H]1O)CC(=O)NCCO[C@H]1O[C@H](CO)[C@@H](O)[C@H](O)[C@@H]1O)C(=O)N[C@@H](CC(C)C)C(=O)NCCCC[C@@H](C(=O)NCCO[C@H]1O[C@H](CO)[C@@H](O)[C@H](O)[C@@H]1O)N(CC(=O)NCCO[C@H]1O[C@H](CO)[C@@H](O)[C@H](O)[C@@H]1O)CC(=O)NCCO[C@H]1O[C@H](CO)[C@@H](O)[C@H](O)[C@@H]1O [IOC-56],"IC50 [1, 2]: 30.9 nM"
24.7 nM,CC(=O)[C@H](CCCCN)NC(=O)CCCCCNC(=O)[C@H](CCCCNC(=O)CCCCCNC(=O)CN(CC(=O)NCCO[C@H]1O[C@H](CO)[C@@H](O)[C@H](O)[C@@H]1O)CC(=O)NCCO[C@H]1O[C@H](CO)[C@@H](O)[C@H](O)[C@@H]1O)NC(=O)[C@H](CCCCNC(=O)CCCCCNC(=O)CN(CC(=O)NCCO[C@H]1O[C@H](CO)[C@@H](O)[C@H](O)[C@@H]1O)CC(=O)NCCO[C@H]1O[C@H](CO)[C@@H](O)[C@H](O)[C@@H]1O)NC(=O)CCCCCNC(=O)CN(CC(=O)NCCO[C@H]1O[C@H](CO)[C@@H](O)[C@H](O)[C@@H]1O)CC(=O)NCCO[C@H]1O[C@H](CO)[C@@H](O)[C@H](O)[C@@H]1O [IOC-40],–
10.9 nM,CC(=O)[C@H](CCCCN)NC(=O)CCCCC(=O)NCC(=O)N[C@@H](CCC(=O)N[C@@H](CCC(=O)NCCCCCC(=O)N(CCOC1O[C@H](CO)[C@@H](O)[C@H](O)[C@@H]1O)CCOC1O[C@H](CO)[C@@H](O)[C@H](O)[C@@H]1O)C(=O)NCCCCCC(=O)N(CCOC1O[C@H](CO)[C@@H](O)[C@H](O)[C@@H]1O)CCOC1O[C@H](CO)[C@@H](O)[C@H](O)[C@@H]1O)C(=O)NCCCCCC(=O)NCCO[C@@H]1O[C@H](CO[C@H]2O[C@H](CO)[C@@H](O)[C@H](O)[C@@H]2O)[C@@H](O)[C@H](O[C@H]2O[C@H](CO)[C@@H](O)[C@H](O)[C@@H]2O)[C@@H]1O (stereo partly drawn) [IOC-28],–
8.91 nM,CC(=O)[C@H](CCCCN)NC(=O)CCCCC(=O)N[C@@H](CCC(=O)N[C@@H](CCC(=O)N[C@@H](CCC(=O)N[C@@H](CCC(=O)N[C@@H](CCC(=O)NCCO[C@@H]1O[C@@H](C)[C@@H](O)[C@@H](O)[C@@H]1O)C(=O)NCCO[C@@H]1O[C@@H](C)[C@@H](O)[C@@H](O)[C@@H]1O)C(=O)NCCO[C@@H]1O[C@@H](C)[C@@H](O)[C@@H](O)[C@@H]1O)C(=O)NCCO[C@@H]1O[C@@H](C)[C@@H](O)[C@@H](O)[C@@H]1O)C(=O)NCCO[C@@H]1O[C@@H](C)[C@@H](O)[C@@H](O)[C@@H]1O)C(=O)NCCO[C@@H]1O[C@@H](C)[C@@H](O)[C@@H](O)[C@@H]1O [IOC-54],–
9.22 nM,CC(=O)[C@H](CCCCN)NC(=O)CCCCCNC(=O)[C@H](CCCCNC(=O)CCCCCNC(=O)CCCCCNC(=O)CN(CC(=O)NCCO[C@H]1O[C@H](CO)[C@@H](O)[C@H](O)[C@@H]1O)CC(=O)NCCO[C@@H]1O[C@@H](C)[C@@H](O)[C@@H](O)[C@@H]1O)NC(=O)[C@H](CCCCNC(=O)CCCCCNC(=O)CN(CC(=O)NCCO[C@H]1O[C@H](CO)[C@@H](O)[C@H](O)[C@@H]1O)CC(=O)NCCO[C@@H]1O[C@@H](C)[C@@H](O)[C@@H](O)[C@@H]1O)NC(=O)CCCCCNC(=O)CN(CC(=O)NCCO[C@H]1O[C@H](CO)[C@@H](O)[C@H](O)[C@@H]1O)CC(=O)NCCO[C@@H]1O[C@@H](C)[C@@H](O)[C@@H](O)[C@@H]1O [IOC-53],–
